Source: article PMC12025037, “Molecular Basis of Dipeptide Recognition in Drosophila melanogaster Angiotensin I-Converting Enzyme Homologue, AnCE” (Biomolecules, 2025)
Residues, ends and D or L forms follow the SMILES beside them.

Columns and labels:
cACE = biological target: cACE; design: method as in PMID 25053098; details: cited from earlier work
ACE = tested on: ACE; design: method as in doi:10.1007/s00217-013-2014-x; details: inhibition of ACE activity; cited from earlier work
AnCE = biological target: T1, AnCE (Drosophila melanogaster, UniProt Q10714); assay: Inhibition of AnCE activity, fluorogenic Abz-FRK(Dnp)-P substrate assay; type: biochemical; details: for IC50: AnCE 25 ng, substrate Abz-FRK(Dnp)-P, pH 7.5, 20 °C, 10 min pre-incubation with inhibitor; for Ki: AnCE
T1 construct: made in house; host or cells: Pichia pastoris GS115 (vector pPiC9), purified from the culture supernatant
T1 sequence (Q10714 18-615): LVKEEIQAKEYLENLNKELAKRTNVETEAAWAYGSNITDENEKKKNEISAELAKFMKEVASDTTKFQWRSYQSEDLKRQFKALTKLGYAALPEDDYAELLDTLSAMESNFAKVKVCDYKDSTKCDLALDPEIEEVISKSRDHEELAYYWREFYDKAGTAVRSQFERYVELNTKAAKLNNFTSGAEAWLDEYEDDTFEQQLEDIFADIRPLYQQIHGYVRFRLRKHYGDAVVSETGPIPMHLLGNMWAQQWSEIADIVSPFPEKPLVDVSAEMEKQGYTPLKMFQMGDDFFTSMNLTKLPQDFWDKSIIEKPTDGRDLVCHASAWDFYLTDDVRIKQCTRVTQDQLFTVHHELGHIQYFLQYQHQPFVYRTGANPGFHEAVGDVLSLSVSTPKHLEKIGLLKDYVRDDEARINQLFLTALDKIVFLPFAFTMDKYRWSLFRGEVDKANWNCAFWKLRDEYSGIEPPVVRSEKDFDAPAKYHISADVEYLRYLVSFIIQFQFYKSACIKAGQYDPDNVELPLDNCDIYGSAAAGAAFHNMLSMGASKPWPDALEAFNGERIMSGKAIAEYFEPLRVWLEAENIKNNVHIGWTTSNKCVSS
Protocol: Enzyme assays were performed using the internally quenched fluorogenic peptide Abz-FRK(Dnp)-P (Enzo Life Sciences Ltd., Exeter, UK) as a substrate for 25 ng of AnCE in 200 µL of 100 mM HEPES buffer pH 7.5 with 50 mM NaCl and 10 µM ZnCl2. The reaction was started by adding 2 µL of 5 mM Abz-FRK(Dnp)-P in dimethyl sulfoxide to the buffer in wells of a 96-well black plastic plate (Corning Life Sciences, High Wycombe, UK), and the release of fluorescence on hydrolysis of the substrate was monitored continuously at 20 °C using a FLUOstar Omega (BMG Labtech GmbH, Offenburg, Germany) with λex at 340 nm and λem set at 430 nm. For studying the effect of dipeptide inhibitors, the enzyme in the assay buffer was pre-incubated with inhibitor for 10 min prior to the addition of the substrate. IC50 values were determined using the non-linear regression curve-fitting software [log(inhibitor) vs. response] of GraphPad Prism 7.01 (GraphPad Software, San Diego, CA, USA). The coefficient of determination (R^2) values for the regression model ranged from 0.9852 to 0.9629. Ki values were obtained using the Cheng–Prusoff equation and a substrate Km of 14.24 µM, obtained using non-linear regression curve-fitting software (Michaelis–Menten) of GraphPad Prism 7.01. The R^2 for the Km determination was 0.9787 [31].

nACE = biological target: nACE; design: method as in PMID 25053098; details: cited from earlier work
[1] = from IC50 by Cheng–Prusoff equation, substrate Km 14.24 µM

| SMILES | Ki (cACE) [µM] | IC50 (ACE) [µM] | IC50 (AnCE) [µM] | Ki (AnCE; [1]) [µM] | Ki (nACE) [µM] | Ki (AnCE; values restated in µM in the text) [µM] | inhibition of cACE (in words) (cACE) |
| --- | --- | --- | --- | --- | --- | --- | --- |
| CC[C@H](C)[C@H](N)C(=O)N[C@@H](Cc1c[nH]c2ccccc12)C(=O)O [IW] | 1.6 | 0.7 | 340 | 80 | 59.6 | – | – |
| NC(N)=NCCC[C@H](N)C(=O)N[C@@H](Cc1c[nH]c2ccccc12)C(=O)O [RW] (H-Arg-Trp-OH) | – | – | 880 | – | – | 200 | – |
| CC(C)[C@H](N)C(=O)N[C@@H](Cc1c[nH]c2ccccc12)C(=O)O [VW] (H-Val-Trp-OH) | 2.1 | – | 780 | 170 | 152 | – | – |
| N=C(N)NCCC[C@H](NC(=O)[C@@H](N)Cc1c[nH]c2ccccc12)C(=O)O [WR] (H-Trp-Arg-OH) | – | – | 3780 | 840 | – | – | poor inhibitors |
| N[C@@H](Cc1ccc(O)cc1)C(=O)N[C@@H](Cc1c[nH]c2ccccc12)C(=O)O [YW] (H-Tyr-Trp-OH) | – | – | 3400 | 750 | – | – | poor inhibitors |
